According to ChEMBL document CHEMBL4017540, “Synthesis of Potent and Selective Inhibitors of Aldo-Keto Reductase 1B10 and Their Efficacy against Proliferation, Metastasis, and Cisplatin Resistance of Lung Cancer Cells” (J Med Chem, 2017):
Where a chain is given by its changes, count along the chain named. pIC50, pKi: −log10 of the molar value.

What was measured:
[1] = Competitive inhibition of recombinant human AKR1B10 Lys125Leu mutant in presence of geraniol as substrate by Lineweaver-Burk plot method
[2] = target: T1, Carbonyl reductase [NADPH] 1 (Homo sapiens, UniProt P16152); experiment: Inhibition of recombinant human CBR1 using isatin as substrate
T1 sequence (P16152 whole entry): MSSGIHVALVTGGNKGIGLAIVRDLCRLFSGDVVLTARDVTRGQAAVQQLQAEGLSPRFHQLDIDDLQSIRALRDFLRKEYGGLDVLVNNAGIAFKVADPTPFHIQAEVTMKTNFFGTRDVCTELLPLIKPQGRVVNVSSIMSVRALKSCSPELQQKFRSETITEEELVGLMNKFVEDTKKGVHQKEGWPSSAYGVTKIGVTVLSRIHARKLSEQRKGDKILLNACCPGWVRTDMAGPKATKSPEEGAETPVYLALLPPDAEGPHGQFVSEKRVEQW

[3] = target: T2, Aldo-keto reductase family 1 member B10 (Homo sapiens, UniProt O60218); experiment: Competitive inhibition of recombinant human AKR1B10 in presence of geraniol as substrate by Lineweaver-Burk plot method
[4] = target: T2, Aldo-keto reductase family 1 member B10; experiment: Inhibition of recombinant human AKR1B10 using pyridine-3-aldehyde as substrate
[5] = target: T3, Aldo-keto reductase family 1 member C2 (Homo sapiens, UniProt P52895); experiment: Inhibition of recombinant human AKR1C2 using S-tetralol as substrate
T3 sequence (P52895 whole entry): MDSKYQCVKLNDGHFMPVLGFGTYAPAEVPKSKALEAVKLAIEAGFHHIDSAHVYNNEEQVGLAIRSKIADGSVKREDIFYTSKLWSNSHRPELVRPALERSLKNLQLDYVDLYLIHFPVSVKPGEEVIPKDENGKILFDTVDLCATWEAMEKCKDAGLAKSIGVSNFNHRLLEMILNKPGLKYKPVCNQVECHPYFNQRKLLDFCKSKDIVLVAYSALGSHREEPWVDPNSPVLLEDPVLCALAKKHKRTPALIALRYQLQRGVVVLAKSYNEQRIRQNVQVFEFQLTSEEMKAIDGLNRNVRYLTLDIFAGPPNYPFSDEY

[6] = Competitive inhibition of recombinant human AKR1B10 Gln303Ser mutant in presence of geraniol as substrate by Lineweaver-Burk plot method
[7] = target: T4, Aldo-keto reductase family 1 member C3 (Homo sapiens, UniProt P42330); experiment: Inhibition of recombinant human AKR1C3 using S-tetralol as substrate
T4 sequence (P42330 whole entry): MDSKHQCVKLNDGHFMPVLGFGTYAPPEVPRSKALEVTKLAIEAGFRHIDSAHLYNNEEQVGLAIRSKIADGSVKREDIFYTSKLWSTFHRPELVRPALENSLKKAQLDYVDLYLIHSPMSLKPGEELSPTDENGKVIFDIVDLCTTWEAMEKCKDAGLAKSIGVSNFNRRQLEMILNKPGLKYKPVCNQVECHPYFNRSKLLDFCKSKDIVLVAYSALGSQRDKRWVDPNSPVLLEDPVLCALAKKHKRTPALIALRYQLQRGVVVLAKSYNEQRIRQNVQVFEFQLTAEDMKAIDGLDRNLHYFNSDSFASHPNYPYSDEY

[8] = Competitive inhibition of recombinant human AKR1B10 Trp220Tyr mutant in presence of geraniol as substrate by Lineweaver-Burk plot method
[9] = target: T5, Aldo-keto reductase family 1 member C1 (Homo sapiens, UniProt Q04828); experiment: Inhibition of recombinant human AKR1C1 using S-tetralol as substrate
T5 sequence (Q04828 whole entry): T3 sequence (P52895 whole entry) with V38T, H47R, V54L, S87C, M151V, H170R, L172Q

[10] = target: T6, Aldo-keto reductase family 1 member A1 (Homo sapiens, UniProt P14550); experiment: Inhibition of recombinant human AKR1A1 using pyridine-3-aldehyde as substrate
T6 sequence (P14550 whole entry): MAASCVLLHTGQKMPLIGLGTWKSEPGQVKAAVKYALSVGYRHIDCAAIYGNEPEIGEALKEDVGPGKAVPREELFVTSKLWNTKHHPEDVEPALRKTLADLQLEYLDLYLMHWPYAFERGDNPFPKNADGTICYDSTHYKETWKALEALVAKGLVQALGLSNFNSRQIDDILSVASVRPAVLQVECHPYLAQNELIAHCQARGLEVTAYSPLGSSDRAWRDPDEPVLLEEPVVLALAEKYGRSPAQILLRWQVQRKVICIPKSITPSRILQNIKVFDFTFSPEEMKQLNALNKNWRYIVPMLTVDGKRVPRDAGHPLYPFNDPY

[11] = target: T7, Aldo-keto reductase family 1 member C4 (Homo sapiens, UniProt P17516); experiment: Inhibition of recombinant human AKR1C4 using S-tetralol as substrate
T7 sequence (P17516 whole entry): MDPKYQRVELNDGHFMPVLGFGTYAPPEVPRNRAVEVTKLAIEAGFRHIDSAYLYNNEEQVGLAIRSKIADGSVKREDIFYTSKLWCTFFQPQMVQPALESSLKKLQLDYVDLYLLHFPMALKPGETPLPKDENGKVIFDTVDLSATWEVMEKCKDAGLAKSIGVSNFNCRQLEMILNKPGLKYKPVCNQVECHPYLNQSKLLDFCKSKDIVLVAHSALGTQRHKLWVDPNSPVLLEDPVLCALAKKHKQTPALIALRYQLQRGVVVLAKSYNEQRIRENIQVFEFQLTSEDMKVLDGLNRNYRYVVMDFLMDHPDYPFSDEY

[12] = Competitive inhibition of recombinant human AKR1B10 Val301Leu mutant in presence of geraniol as substrate by Lineweaver-Burk plot method
[13] = target: T8, Aldo-keto reductase family 1 member B1 (Homo sapiens, UniProt P15121); experiment: Inhibition of recombinant human AKR1B1 using pyridine-3-aldehyde as substrate
[14] = target: T2, Aldo-keto reductase family 1 member B10; experiment: Inhibition of human recombinant AKR1B10 (1 to 316 residues) expressed in Escherichia coli using pyridine-3-aldehyde as substrate
[15] = target: T8, Aldo-keto reductase family 1 member B1; experiment: Inhibition of human recombinant AKR1B1 (1 to 316 residues) expressed in Escherichia coli using pyridine-3-aldehyde as substrate
[16] = target: T8, Aldo-keto reductase family 1 member B1; experiment: Inhibition of AKR1B1 (unknown origin)
[17] = target: T2, Aldo-keto reductase family 1 member B10; experiment: Inhibition of AKR1B10 (unknown origin)
[18] = target: T2, Aldo-keto reductase family 1 member B10; experiment: Inhibition of recombinant human intestinal N-terminal 6-His-tagged AKR1B10 expressed in Escherichia coli BL21 (DE3) pLysS cells using pyridine-3-aldehyde as substrate by fluorescence assay
[19] = target: T8, Aldo-keto reductase family 1 member B1; experiment: Inhibition of recombinant human AKR1B1 using pyridine-3-aldehyde as substrate by fluorescence assay

T2 sequence (O60218 whole entry): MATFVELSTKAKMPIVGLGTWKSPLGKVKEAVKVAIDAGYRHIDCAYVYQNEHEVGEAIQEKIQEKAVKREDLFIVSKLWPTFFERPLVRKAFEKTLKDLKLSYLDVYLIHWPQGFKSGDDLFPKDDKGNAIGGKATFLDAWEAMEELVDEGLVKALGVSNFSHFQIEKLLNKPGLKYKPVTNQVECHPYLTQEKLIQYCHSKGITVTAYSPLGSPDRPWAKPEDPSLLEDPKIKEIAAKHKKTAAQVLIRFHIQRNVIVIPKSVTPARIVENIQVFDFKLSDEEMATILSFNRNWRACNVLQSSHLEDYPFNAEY

O=C(NCCCc1ccc(O)cc1)c1cc2ccc(O)cc2oc1=O
pKi [1]: 8.16 | pIC50 [2]: 5.38 | pKi [3]: 8.64 | pIC50 [4]: 8.38 | pIC50 [5]: 6.01 | pKi [6]: 8.60 | pIC50 [7]: 5.80 | pKi [8]: 7.85 | pIC50 [9]: 6.02 | pIC50 [10]: 5.82 | pIC50 [11]: 6.09 | pKi [12]: 8.01 | pIC50 [13]: 6.69

O=C(NCCCc1ccc(O)cc1)c1cc2ccccc2oc1=O
pIC50 [4]: 5.57 | pIC50 [13]: < 5.00

COc1ccc(CCCNC(=O)c2cc3ccc(O)cc3oc2=O)cc1
pIC50 [4]: 7.96 | pIC50 [13]: 6.41

COc1ccc(/N=c2\oc3cc(O)ccc3cc2C(=O)NCCCc2cccc(O)c2)cc1
pIC50 [4]: 8.12 | pIC50 [13]: 7.82

O=C(NCCCCc1ccc(O)cc1)c1cc2ccc(O)cc2oc1=O
pIC50 [4]: 7.96 | pIC50 [13]: 6.50

O=C(NCCCc1ccc(F)cc1)c1cc2ccc(O)cc2oc1=O
pIC50 [2]: 5.96 | pIC50 [4]: 8.46 | pIC50 [5]: 6.21 | pIC50 [7]: 6.33 | pIC50 [9]: 4.92 | pIC50 [10]: 5.77 | pIC50 [11]: 6.46 | pIC50 [13]: 6.56

C[C@@]12CCC[C@H]1[C@@H]1C[C@@H](O)[C@@]3(O)C[C@@H](O)CC[C@]3(CO)[C@H]1CC2
pIC50 [14]: 6.08 | pIC50 [15]: < 4.00

O=C(NCCc1ccc(O)cc1)c1cc2ccc(O)cc2oc1=O
pIC50 [4]: 7.70 | pIC50 [13]: 7.01

O=C(NCCCc1ccc(O)cc1)c1cc2cccc(O)c2oc1=O
pIC50 [4]: 5.82 | pIC50 [13]: 5.02

O=C(/C=C/c1ccc(O)cc1)CC(=O)/C=C/c1ccc(O)cc1 [BISDEMETHOXYCURCUMIN]
pIC50 [16]: 5.29 | pIC50 [17]: 7.22

O=C(NCCCc1cc(F)cc(F)c1)c1cc2ccc(O)cc2oc1=O
pIC50 [4]: 8.11 | pIC50 [13]: 6.49

O=C(NCCCc1cccc(O)c1)c1cc2ccc(O)cc2oc1=O
pIC50 [4]: 8.08 | pIC50 [13]: 6.74

Cc1ccc(CCCNC(=O)c2cc3ccc(O)cc3oc2=O)cc1
pIC50 [4]: 8.15 | pIC50 [13]: 6.70

O=C(NCCCc1cccc(F)c1)c1cc2ccc(O)cc2oc1=O
pIC50 [4]: 8.22 | pIC50 [13]: 6.47

C[C@H](CCC(=O)O)[C@H]1CC[C@H]2[C@@H]3CC[C@@H]4C[C@@H](O)CC[C@]4(C)[C@H]3CC[C@]12C [ISOLITHOCHOLIC ACID]
pIC50 [18]: 7.57 | pIC50 [19]: 5.16

O=C(NCCCc1ccccc1O)c1cc2ccc(O)cc2oc1=O
pIC50 [4]: 8.19 | pIC50 [13]: 6.66
